This note sets out measurements from patent US11332464B2, “Inhibitors of lysine gingipain” (priority 2014, dated 2022).

The assay addresses Kgp (Porphyromonas gingivalis, UniProt P72197). Kind of assay: Lysine gingipain (Kgp) fluorogenic inhibition assay. The note with it: 0.1 nM Kgp, 10 uM Z-His-Glu-Lys-MCA, 90 minutes, 37° C. It is filed as biochemical. The method, then: The capacities of compounds of the present invention to inhibit the activity of lysine gingipain were measured in a fluorogenic assay similar to those described in Barret Biochemical Journal. 1980, 187(3), 909. The specific assay conditions were as follows. Buffer: pH=7.5, 100 mM Tris-HCl, 75 mM NaCl, 2.5 mM CaCl2, 10 mM cysteine, 1% DMSO after all additions. Protein: 0.1 nM Kgp, isolated from culture of Porphyromonas gingivalis, as described in Pike et al. J. Biol. Chem. 1994, 269(1), 406, and Potempa and Nguyen. Current Protocols in Protein Science. 2007, 21.20.1-21.20.27. Fluorogenic substrate: 10 uM Z-His-Glu-Lys-MCA. Time=90 minutes. Temperature=37° C. Each compound: 10 concentrations, starting at either 100 uM or 100 nM, with lower concentrations generated by serial 3-fold dilutions. By testing a range of concentrations for each compound, the concentration required to inhibit the activity of lysine gingipain by 50% (the “IC50”) was determined. Under the described assay conditions, signal-to-noise was excellent, and Z factor was greater than 0.6.

SMILES strings stand for the structures. Where two headings read alike, the source gives them in different places.

As usually defined, the IC50 is the concentration at which inhibition is half-maximal. `NCCCCC(NC(=O)[C@@H]1CCCN(C(=O)CCc2ccccc2)C1)C(=O)c1nc2ccccc2s1` (single isomer, unassigned) [Compound 14] had an IC50 (Kgp IC50 average) of 1 to 10 nM.

Regarding `NCCCCC(NC(=O)[C@@H]1CCCN(C(=O)CCc2ccccc2)C1)C(=O)c1nc2ccccc2s1` (single isomer, unassigned) [Compound 15], the IC50 (read-out: Kgp IC50 average) is 1 to 10 nM.

For `NCCCC[C@H](NC(=O)C1CCCOC1)C(=O)c1nc2ccccc2s1` (single isomer, unassigned) [Compound 18], the IC50 (Kgp IC50 average) was in the range of 10 to 25 nM.

For `NCCCC[C@H](NC(=O)C1CCCOC1)C(=O)c1nc2ccccc2s1` (single isomer, unassigned) [Compound 19], the IC50 (read-out: Kgp IC50 average) was 10 to 25 nM.

On to `NCCCC[C@H](NC(=O)C1CCCCO1)C(=O)c1nc2ccccc2s1` (single isomer, unassigned) [Compound 25], for which the half-inhibitory concentration (IC50) (Kgp IC50 average) was in the range of 25 to 50 nM.

In the case of `NCCCC[C@H](NC(=O)C1CCCCO1)C(=O)c1nc2ccccc2s1` (single isomer, unassigned) [Compound 26], the IC50 (read-out: Kgp IC50 average) was 25 to 50 nM.

Turning to `NCCCC[C@H](NC(=O)C1CCCO1)C(=O)c1nc2ccccc2s1` (single isomer, unassigned) [Compound 34], the IC50 (Kgp IC50 average) is 1 to 10 nM.

Turning to `NCCCC[C@H](NC(=O)C1CCCO1)C(=O)c1nc2ccccc2s1` (single isomer, unassigned) [Compound 35], where the note is “read-out: Kgp IC50 average”, the IC50 was in the range of 1 to 10 nM.

In the case of `NCCCC[C@H](NC(=O)c1ccccc1C(F)(F)F)C(=O)c1nc2ccccc2s1` [Compound 7, N-[(1S)-5-amino-1-(1,3-benzothiazole-2-carbonyl)pentyl]-2-(trifluoromethyl)benzamide], the 50% inhibitory concentration (IC50) (Kgp IC50 average) lay within 25 to 50 nM.

Compound `CC(=O)N1CCC[C@H](C(=O)N[C@@H](CCCCN)C(=O)c2nc3ccccc3s2)C1` [Compound 8, (3S)-1-acetyl-N-[(1S)-5-amino-1-(1,3-benzothiazole-2-carbonyl)pentyl]piperidine-3-carboxamide] registered an IC50 (Kgp IC50 average) of 10 to 25 nM.

Take `CC(=O)N1CCC[C@@H](C(=O)N[C@@H](CCCCN)C(=O)c2nc3ccccc3s2)C1` [Compound 9, (3R)-1-acetyl-N-[(1S)-5-amino-1-(1,3-benzothiazole-2-carbonyl)pentyl]piperidine-3-carboxamide]: the IC50 (Kgp IC50 average) is 1 to 10 nM.

Regarding `CC(=O)N1CCC[C@H](C(=O)N[C@H](CCCCN)C(=O)c2nc3ccccc3s2)C1` [Compound 10, (3S)-1-acetyl-N-[(1R)-5-amino-1-(1,3-benzothiazole-2-carbonyl)pentyl]piperidine-3-carboxamide], the IC50 (Kgp IC50 average) lay in the range of 10 to 25 nM.

Turning to `CC(=O)N1CCC[C@@H](C(=O)N[C@H](CCCCN)C(=O)c2nc3ccccc3s2)C1` [Compound 11, (3R)-1-acetyl-N-[(1R)-5-amino-1-(1,3-benzothiazole-2-carbonyl)pentyl]piperidine-3-carboxamide], for the setting “Kgp IC50 average”, the IC50 is 1 to 10 nM.

Consider `NCCCC[C@H](NC(=O)c1ccccn1)C(=O)c1nc2ccccc2s1` [Compound 12, N-[(1S)-5-amino-1-(1,3-benzothiazole-2-carbonyl)pentyl]pyridine-2-carboxamide], for which the IC50 (Kgp IC50 average) lay within 50 to 100 nM.

For `NCCCC[C@H](NC(=O)c1ccncc1)C(=O)c1nc2ccccc2s1` [Compound 13, N-[(1S)-5-amino-1-(1,3-benzothiazole-2-carbonyl)pentyl]pyridine-4-carboxamide], for the setting “Kgp IC50 average”, the IC50 is 25 to 50 nM.

`NCCCC[C@H](NC(=O)C1CCOCC1)C(=O)c1nc2ccccc2s1` [Compound 22, N-[(1S)-5-amino-1-(1,3-benzothiazole-2-carbonyl)pentyl]tetrahydropyran-4-carboxamide] gave a half-maximal inhibitory concentration (IC50) (Kgp IC50 average) of 10 to 25 nM.

As to `NCCCC[C@H](NC(=O)OCc1ccccc1)C(=O)c1nc2ccccc2s1` [Compound 23, Benzyl-N-[(1S)-5-amino-1-(1,3-benzothiazole-2-carbonyl)pentyl]carbamate], under “Kgp IC50 average”, the IC50 was in the range of 100 to 250 nM.

In turn, `NCCCC[C@H](NC(=O)C1CCCC1)C(=O)c1nc2ccccc2s1` [Compound 24, N-[(1S)-5-amino-1-(1,3-benzothiazole-2-carbonyl)pentyl]cyclo-pentanecarboxamide] gave an IC50 (Kgp IC50 average) of 1 to 10 nM.

`CC(=O)N1CCOC(C(=O)N[C@@H](CCCCN)C(=O)c2nc3ccccc3s2)C1` (stereo partly drawn) [Compound 29, 4-acetyl-N-[(1S)-5-amino-1-(1,3-benzothiazole-2-carbonyl)pentyl]morpholine-2-carboxamide] registered an IC50 (Kgp IC50 average) of 10 to 25 nM.

`NCCCC[C@H](NC(=O)c1cccnc1)C(=O)c1nc2ccccc2s1` [Compound 30, N-[(1S)-5-amino-1-(1,3-benzothiazole-2-carbonyl)pentyl]pyridine-3-carboxamide]: for the setting “Kgp IC50 average”, the IC50 was 25 to 50 nM.

`NCCCC[C@H](NC(=O)C1CCCc2ccccc21)C(=O)c1nc2ccccc2s1` (stereo partly drawn) [Compound 31, N-[(1S)-5-amino-1-(1,3-benzothiazole-2-carbonyl)pentyl]tetralin-1-carboxamide]: the IC50 (Kgp IC50 average) was 10 to 25 nM.

In turn, `NCCCC[C@H](NC(=O)C1CCc2ccccc2C1)C(=O)c1nc2ccccc2s1` (stereo partly drawn) [Compound 32, N-[(1S)-5-amino-1-(1,3-benzothiazole-2-carbonyl)pentyl]tetralin-2-carboxamide] registered an IC50 (Kgp IC50 average) of 1 to 10 nM.

On to `CC1(C(=O)N[C@@H](CCCCN)C(=O)c2nc3ccccc3s2)CCCCC1` [Compound 33, N-[(1S)-5-amino-1-(1,3-benzothiazole-2-carbonyl)pentyl]-1-methyl-cyclohexanecarboxamide], for which, for the setting “Kgp IC50 average”, the IC50 fell in the range of 1 to 10 nM.

The compound `NCCCC[C@H](NC(=O)c1cncs1)C(=O)c1nc2ccccc2s1` [Compound 38, N-[(1S)-5-amino-1-(1,3-benzothiazole-2-carbonyl)pentyl]thiazole-5-carboxamide] registered a half-maximal inhibitory concentration (IC50) (Kgp IC50 average) of 10 to 25 nM.

Regarding `NCCCC[C@H](NC(=O)c1nccs1)C(=O)c1nc2ccccc2s1` [Compound 39, N-[(1S)-5-amino-1-(1,3-benzothiazole-2-carbonyl)pentyl]thiazole-2-carboxamide], the half-inhibitory concentration (IC50) (Kgp IC50 average) lay within 50 to 100 nM.

The compound `NCCCC[C@H](NC(=O)c1cccc(=O)[nH]1)C(=O)c1nc2ccccc2s1` [Compound 40, N-[(1S)-5-amino-1-(1,3-benzothiazole-2-carbonyl)pentyl]-6-oxo-1H-pyridine-2-carboxamide] came in with an IC50 (Kgp IC50 average) of 25 to 50 nM.

Compound `COC1(C(=O)N[C@@H](CCCCN)C(=O)c2nc3ccccc3s2)CCCCC1` [Compound 41, (S)—N-(6-amino-1-(benzo[d]thiazol-2-yl)-1-oxohexan-2-yl)-1-methoxycyclohexanecarboxamide] had an IC50 (Kgp IC50 average) of 10 to 25 nM.

`NCCCC[C@H](NC(=O)C1CCCC1)C(=O)c1nccs1` [Compound 42, N-[(1S)-5-amino-1-(thiazole-2-carbonyl)pentyl]cyclopentanecarboxamide]: for the setting “Kgp IC50 average”, the IC50 was in the range of 50 to 100 nM.

Take `NCCCC[C@H](NC(=O)C1CCCC1)C(=O)c1ccccn1` [Compound 44, N-[(1S)-5-amino-1-(pyridine-2-carbonyl)pentyl]cyclopentanecarboxamide]: the IC50 (Kgp IC50 average) was more than 250 nM.
